Test results taken from the NIST ThermoML archive (doi:10.1016/j.jct.2006.09.008).
Numbers after ± are expanded uncertainties.

Experiment: molar heat capacity at constant pressure; mn = molality of the nth substance listed, in mol/kg
Details: 350 kPa, Liquid

O=[N+]([O-])[O-].O=[N+]([O-])[O-].[Sr+2] [strontium nitrate] + O
molar heat capacity at constant pressure [J/K/mol]
Details | m1 = 0.0499 | m1 = 0.1006 | m1 = 0.2005 | m1 = 0.4995 | m1 = 0.7992 | m1 = 0.9995 | m1 = 1.502 | m1 = 2.003 | m1 = 3.001
338.15 K | 75.26 ± 0.3 | 75.15 ± 0.3 | 74.98 ± 0.3 | 74.72 ± 0.3 | 74.71 ± 0.3 | 74.82 ± 0.3 | 75.37 ± 0.3 | 76.3 ± 0.3 | 78.36 ± 0.31
343.15 K | 75.32 ± 0.3 | 75.21 ± 0.3 | 75.04 ± 0.3 | 74.78 ± 0.3 | 74.77 ± 0.3 | 74.87 ± 0.3 | 75.41 ± 0.3 | 76.33 ± 0.3 | 78.38 ± 0.31
348.15 K | 75.39 ± 0.3 | 75.27 ± 0.3 | 75.11 ± 0.3 | 74.85 ± 0.3 | 74.83 ± 0.3 | 74.93 ± 0.3 | 75.46 ± 0.3 | 76.36 ± 0.3 | 78.41 ± 0.31
353.15 K | 75.46 ± 0.3 | 75.34 ± 0.3 | 75.18 ± 0.3 | 74.91 ± 0.3 | 74.89 ± 0.3 | 74.98 ± 0.3 | 75.5 ± 0.3 | 76.4 ± 0.3 | 78.43 ± 0.31
358.15 K | 75.54 ± 0.3 | 75.42 ± 0.3 | 75.25 ± 0.3 | 74.98 ± 0.3 | 74.95 ± 0.3 | 75.04 ± 0.3 | 75.55 ± 0.3 | 76.44 ± 0.3 | 78.47 ± 0.31
363.15 K | 75.62 ± 0.3 | 75.5 ± 0.3 | 75.33 ± 0.3 | 75.06 ± 0.3 | 75.02 ± 0.3 | 75.11 ± 0.3 | 75.6 ± 0.3 | 76.48 ± 0.31 | 78.52 ± 0.31
368.15 K | 75.71 ± 0.3 | 75.59 ± 0.3 | 75.42 ± 0.3 | 75.14 ± 0.3 | 75.09 ± 0.3 | 75.17 ± 0.3 | 75.65 ± 0.3 | 76.53 ± 0.31 | 78.57 ± 0.31
373.15 K | 75.81 ± 0.3 | 75.69 ± 0.3 | 75.51 ± 0.3 | 75.22 ± 0.3 | 75.17 ± 0.3 | 75.24 ± 0.3 | 75.71 ± 0.3 | 76.59 ± 0.31 | 78.64 ± 0.32
378.15 K | 75.92 ± 0.3 | 75.8 ± 0.3 | 75.61 ± 0.3 | 75.31 ± 0.3 | 75.25 ± 0.3 | 75.32 ± 0.3 | 75.78 ± 0.3 | 76.65 ± 0.31 | 78.72 ± 0.32
383.15 K | 76.04 ± 0.3 | 75.91 ± 0.3 | 75.72 ± 0.3 | 75.4 ± 0.3 | 75.33 ± 0.3 | 75.4 ± 0.3 | 75.85 ± 0.3 | 76.72 ± 0.31 | 78.82 ± 0.32
388.15 K | 76.16 ± 0.3 | 76.03 ± 0.3 | 75.83 ± 0.3 | 75.5 ± 0.3 | 75.42 ± 0.3 | 75.49 ± 0.3 | 75.93 ± 0.3 | 76.8 ± 0.31 | 78.94 ± 0.32
393.15 K | 76.3 ± 0.31 | 76.16 ± 0.3 | 75.95 ± 0.3 | 75.61 ± 0.3 | 75.52 ± 0.3 | 75.58 ± 0.3 | 76.02 ± 0.31 | 76.89 ± 0.31 | 79.07 ± 0.32
